Assay results published in the supplement of paper PMC10949913.

Key:
[1] = test system: NCI-H295R; assay: ExcessHSA synergy score with TAK-243; higher = less synergy (negative = synergistic); conditions: combined with: TAK-243 (MLN-7243) matrix, 9-point 1:2 dilution
Method: (§1)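 Each drug was tested at 9 points with 1:2 dilution; viability was read by CellTiter-Glo as in the single-agent screen. Synergy is scored as ExcessHSA (sum of excess over highest single agent; negative = synergy) and the Beta interaction parameter (<1 synergy).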

[2] = test system: CU-ACC1; assay: as above; conditions: combined with: TAK-243 (MLN-7243) matrix, 9-point 1:2 dilution
Method: as §1

[3] = test system: NCI-H295R; assay: AC50 viability; higher = less potent; conditions: 48 h
Summary of the method: (§2)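 After 48 h of treatment with 23 nL of each library compound at 11 concentrations, three adrenocortical carcinoma cell lines in 1,536-well plates (500–1,000 cells/well, 5 µL medium) were given CellTiter-Glo for 15 minutes at room temperature. Luminescence was then read and normalised per plate to vehicle and empty-well controls. AC50 and area under the curve were drawn from fitted concentration-response curves of inhibitory or non-responding classes only.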

[4] = test system: CU-ACC2; assay: AC50 viability; higher = less potent; conditions: 48 h
Summary of the method: as §2

[5] = test system: CU-ACC1; assay: AC50 viability; higher = less potent; conditions: 48 h
Summary of the method: as §2

[6] = test system: NCI-H295R; assay: area under concentration-response curve (viability) (AUC (a.u.)); higher = less active; conditions: 48 h
Summary of the method: as §2

[7] = test system: CU-ACC2; assay: as above; conditions: 48 h
Summary of the method: as §2

[8] = test system: CU-ACC1; assay: as above; conditions: 48 h
Summary of the method: as §2

Compound	ExcessHSA synergy score with TAK-243 [1]	ExcessHSA synergy score with TAK-243 [2]	AC50 viability [3] [µM]	AC50 viability [4] [µM]	AC50 viability [5] [µM]	area under concentration-response curve [6]	area under concentration-response curve [7]	area under concentration-response curve [8]
C[C@@H]1C[C@H]2[C@@H]3CCC4=CC(=O)C=C[C@]4(C)[C@@]3(F)[C@@H](O)C[C@]2(C)[C@@]1(O)C(=O)CO [Dexamethasone]	743	420						
CO/C1=C\C(C)=C\[C@@H](C)[C@@H](O)[C@@H](C)C/C(C)=C/C=C/[C@H](OC)[C@@H]([C@@H](C)[C@@H](O)[C@H](C)[C@@]2(O)C[C@@H](O)[C@H](C)[C@@H](C(C)C)O2)OC1=O [Bafilomycin A1]	-139	14.5						
Cc1cc(C(=O)CN2CCCCC2)c(C)n1-c1ccc(Cl)cc1 [IU1-47]	125	-58.7						
CCc1cc(C(N)=O)ccc1-n1nc(C(C)C)c2c(-n3cnc(-c4cnn(C)c4)c3)ccnc21 [Pimitespib]	586	959						
O=C(O)CNC(=O)c1ncc(-c2cccc(Cl)c2)cc1O	289	-199						
CCN(c1cc(-c2ccc(CN3CCOCC3)cc2)cc(C(=O)NCc2c(C)cc(C)[nH]c2=O)c1C)C1CCOCC1 [Tazemetostat]	-203							
O=C(C[C@@H](C(F)F)n1ccc(F)n1)N1CCC(O)(Cn2cnc3c(cnn3-c3ccc(F)cc3)c2=O)CC1 [FT671]	431	-97.6						
Cc1nc2cccc(N)c2c(=O)n1C1CCC(=O)NC1=O (stereo not drawn) [Avadomide]	1030	-213						
CC1(C)CCC(c2ccc(Cl)cc2)=C(CN2CCN(c3ccc(C(=O)NS(=O)(=O)c4ccc(N[C@H](CCN5CCOCC5)CSc5ccccc5)c(S(=O)(=O)C(F)(F)F)c4)cc3)CC2)C1 [Navitoclax]	-505	-563						
COC(=O)[C@]12CCC(C)(C)C[C@H]1[C@H]1C(=O)C=C3[C@@]4(C)C=C(C#N)C(=O)C(C)(C)[C@@H]4CC[C@@]3(C)[C@]1(C)CC2 [CDDO-Me]	271	94.3						
O=C1NC(=O)C(c2cnc3ccccn23)=C1c1cn2c3c(cc(F)cc13)CN(C(=O)N1CCCCC1)CC2	305	432						
CNC(=O)c1ccc(Nc2ncc(C(F)(F)F)c(NCc3nccnc3N(C)S(C)(=O)=O)n2)cc1 [Defactinib]	245	223						
O=C(CCCCCCNC(=O)c1cnc(N(c2ccccc2)c2ccccc2Cl)nc1)NO [Citarinostat (ACY-241)]	-290	-47.7						
NC(=O)/C(=C/n1cnc(-c2cc(C(F)(F)F)cc(C(F)(F)F)c2)n1)c1cncnc1 [Eltanexor]	-429	-817						
Nc1nc2[nH]cc(CCc3ccc(C(=O)N[C@@H](CCC(=O)O)C(=O)O)cc3)c2c(=O)[nH]1 [Pemetrexed]	397							
CS(=O)(=O)c1ccc(C(=O)Nc2ccc(Cl)c(-c3ccccn3)c2)c(Cl)c1 [Vismodegib]	-5.69	-206						
C[C@H]1N=C(N(C)C)N=C(N)N1 [Imeglimin]	50.3	-159						
Cc1[nH]c2ccc(F)cc2c1-c1nc2c3cccnc3c3ncccc3c2[nH]1 [APTO-253]	586	410						
O=C(O)c1ccc(CN2CCC(CN[C@@H]3C[C@H]3c3ccccc3)CC2)cc1	23.7	-27.5						
C=CCNC1=C2C[C@@H](C)C[C@H](OC)[C@H](O)[C@@H](C)/C=C(\C)[C@H](OC(N)=O)[C@@H](OC)/C=C\C=C(/C)C(=O)NC(=CC1=O)C2=O [17-AAG]	-251	421						
CC[C@@H]1C(=O)N(C)c2cnc(Nc3ccc(C(=O)N[C@H]4CC[C@H](N5CCN(CC6CC6)CC5)CC4)cc3OC)nc2N1C(C)C [Volasertib]	-938	-422						
COc1cc2c(c(OC)n1)[C@]1(O)[C@H](O)[C@H](CN(C)C)[C@@H](c3ccccc3)[C@]1(c1ccc(C#N)cc1)O2 [Zotatifin]	686	1170						
CO[C@@]12[C@H](COC(N)=O)C3=C(C(=O)C(C)=C(N)C3=O)N1C[C@@H]1N[C@@H]12 [Mitomycin C]	200	133						
CO[C@H]1C[C@@H]2CC[C@@H](C)[C@@](O)(O2)C(=O)C(=O)N2CCCC[C@H]2C(=O)O[C@H]([C@H](C)C[C@@H]2CC[C@@H](OCCO)[C@H](OC)C2)CC(=O)[C@H](C)/C=C(\C)[C@@H](O)[C@@H](OC)C(=O)[C@H](C)C[C@H](C)/C=C/C=C/C=C/1C [Everolimus]	-1040	-885						
Nc1cccc2c1CN(C1CCC(=O)NC1=O)C2=O (stereo not drawn) [Lenalidomide]	364	337						

Compound	ExcessHSA synergy score with TAK-243 [1]	ExcessHSA synergy score with TAK-243 [2]	AC50 viability [3] [µM]	AC50 viability [4] [µM]	AC50 viability [5] [µM]	area under concentration-response curve [6]	area under concentration-response curve [7]	area under concentration-response curve [8]
O=C1CC[C@H](N2Cc3c(OCc4ccc(CN5CCOCC5)cc4)cccc3C2=O)C(=O)N1 [Iberdomide]	1110	393						
CCN(c1cc(-c2ccc(CN3CCOCC3)cc2)cc(C(=O)NCc2c(C)cc(C)[nH]c2=O)c1C)C1CCOCC1		-215						
Nc1nc2[nH]cc(CCc3ccc(C(=O)N[C@@H](CCC(=O)O)C(=O)O)cc3)c2c(=O)[nH]1		147						
Nc1ncn([C@@H]2O[C@H](CO)[C@@H](O)[C@H]2O)c(=O)n1 [5-Azacytidine]	360							
Nc1ncn([C@@H]2O[C@H](CO)[C@@H](O)[C@H]2O)c(=O)n1 [5-Azacitidine]		346						
CC[S+](=O)([O-])c1cccc(-c2cc(C(=O)NC3CCN(C)CC3)c(C)c3[nH]c4ncc(C)cc4c23)c1			20.9	10.5	37.2	545	543	500
C[C@H]([C@H]1C\C(=C(CO)/C(=O)O1)C)[C@H]2CC[C@H]3[C@@H]4C[C@H]5O[C@]56[C@@H](O)\C=C/C(=O)[C@]6(C)[C@H]4CC[C@]23C			1.18	0.468	1.48	401	393	270
CN(C)C/C=C/C(=O)Nc1cc2c(Nc3ccc(F)c(Cl)c3)ncnc2cc1O[C@H]1CCOC1			1.32	0.661	4.68	232	238	231
COC1=C(OC)C=C\2C(=C1)C(=O)N(CCCNCCO)\C3=C2C(=O)C4=C3C=C5OCOC5=C4			7.42	4.17	5.9	407	396	364
CNCc1ccc(C)c(NC(=O)c2ccc(Nc3nc(-c4ccccc4)c4ccccc4n3)cc2)c1			18.6	23.5	16.6	521	575	471
Cc1cc(Nc2cc(N3CCN(C)CC3)nc(/C=C/c3ccccc3)n2)n[nH]1			6.61	13.2	11.8	414	369	401
Fc1cccc(-n2cnc3c(NCc4nc5ccc(F)c(F)c5[nH]4)nc(N4CCOCC4)nc32)c1			1.05	0.742	0.661	394	371	367
NC1(CCC1)C2=CC=C(C=C2)C3=C(C=C/4C(=N3)\C=C/N5C(=O)N\N=C45)C6=CC=CC=C6			16.6	18.6	9.34	404	523	442
c1ccc2c(CCNc3ccc(Nc4ccncc4)cc3)c[nH]c2c1			1.86	10.5	5.9	400	374	363
CNC(=O)c1ccc(Nc2ncc(C(F)(F)F)c(NCc3nccnc3N(C)[S+](C)(=O)[O-])n2)cc1			3.32	1.86	3.32	353	336	354
CC(C)C1NC(=O)C(NC(=O)C2=C3\N=C\4/C(=C(C)\C(=O)\C(=C4C(=O)NC5C(C)OC(=O)C(C(C)C)N(C)C(=O)CN(C)C(=O)C6CCCN6C(=O)C(NC5=O)C(C)C)N)OC3=C(C)C=C2)C(C)OC(=O)C(C(C)C)N(C)C(=O)CN(C)C(=O)C7CCCN7C1=O (stereo not drawn)			0.144	0.00812	0.0512	307	152	230
CC[S+]([O-])(=O)NC1=CC(=C(OC2=C(F)C=C(F)C=C2)C=C1)\C3=C\N(C)C(=O)C4=C3C=C[NH]4			5.9	13.2	10.5	463	493	416
COCCn1c2c([n+](Cc3cnccn3)c1C)C(=O)c1ccccc1C2=O			3.32	0.132	1.66	341	278	246
CC(C)NC(=O)COc1cccc(-c2nc(Nc3ccc4[nH]ncc4c3)c3ccccc3n2)c1			9.34	3.72	13.2	523	507	481
Cc1cc(Nc2cc(NC(=O)c3c(Cl)cccc3Cl)ccn2)nc(N)n1			13.2	5.9	11.8	439	522	457
O=C(Nc1ccnc(NC(=O)C2CC2)c1)c1c(Cl)cccc1Cl			18.6	4.17	9.34	479	463	390
O=C1NC(=O)/C(=C/c2ccc3nccc(-c4ccncc4)c3c2)S1			1.32	1.18	1.32	393	480	412
Cc1n[nH]c2ccc(-c3cncc(OC[C@@H](N)Cc4ccccc4)c3)cc12			2.35	1.18	1.48	294	342	305
CCCC1(CCC)CCC2(CCN(CCCN(CC)CC)C2)CC1			4.17	6.61	4.68	448	516	309
